Experimental data from PubChem BioAssay (NCI).
Where “and” joins values, the source holds several entries; their conditions need not be identical. Identical values can stand only once.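 Tested at 5 concentrations; 48 h exposure; 96-well plates; endpoints linearly interpolated, else capped at highest concentration. GI50 marks 50% less growth. The concentration for full growth arrest is given as TGI.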

Key:
Assay in all cases: NCI-60 cell line screen, 48 h
SNB-78 CNS = tested on: SNB-78 CNS
U251 CNS = tested on: U251 CNS
HOP-18 NSCLC = tested on: HOP-18 NSCLC
DMS 114 small cell lung = tested on: DMS 114 small cell lung
DMS 273 small cell lung = tested on: DMS 273 small cell lung
MCF7 breast = tested on: MCF7 breast
MDA-MB-231 breast = tested on: MDA-MB-231 breast
HS 578T breast = tested on: HS 578T breast
BT-549 breast = tested on: BT-549 breast
DU-145 prostate = tested on: DU-145 prostate

Row | Structure (SMILES) | TGI (SNB-78 CNS) | TGI (U251 CNS) | TGI (HOP-18 NSCLC) | TGI (DMS 114 small cell lung) | TGI (DMS 273 small cell lung) | other results
1 | O=C(CC(=O)n1nc(-c2ccccc2)c(N=Nc2ccc(Cl)cc2)c1-c1ccccc1)Nc1ccc(Cl)cc1 | > 100 µM | > 100 µM | > 100 µM | > 56.9 µM | > 100 µM | 
2 | [N-]=[N+]=C1C(=O)NN=C1c1ccccc1 |  | > 100 µM |  | > 100 µM | > 100 µM | 
3 | COC(=O)C(Cc1nc2ccccc2[nH]c1=O)C(NO)C(=O)Nc1c(Cl)cc([N+](=O)[O-])cc1Cl (configuration not stated) | > 100 µM | 99 µM |  | 54.8 µM |  | 
4 | Nc1ccccc1/C(O)=C1/CCOC1=O | > 100 µM | > 100 µM |  | > 100 µM |  | 
5 | CCOC(=O)/C(C)=C(/O)C(=O)OCC | > 100 µM | > 100 µM | > 100 µM | > 100 µM | > 100 µM | 
6 | Cn1cc(C2(C)CC(C)(C)c3c2n(C)c2ccccc32)c2ccccc21 (configuration not stated) | > 100 µM | > 100 µM |  | > 100 µM | > 100 µM | 
7 | c1cnn(CN(Cn2cccn2)Cn2cccn2)c1 | > 100 µM | > 100 µM |  | > 100 µM | > 100 µM | 
8 | O=C(CCc1nc(=S)[nH][nH]1)Nc1ccccc1Cl | > 100 µM | > 100 µM | > 100 µM | > 100 µM | > 100 µM | 
9 | Clc1cc(Cl)c2ns[s+]c2c1Cl | 14.8 µM | > 100 µM | > 100 µM |  | > 100 µM | 
10 | CCOC(=O)N[C@@H]1C(CC(=O)OC)O[C@H]2OC(C)(C)O[C@H]21 (some centres not stated) | > 100 µM | > 100 µM | > 100 µM | > 100 µM | > 100 µM | 
11 | Cc1cc2ncnn2cc1Nc1ncc2c(n1)n(C1CCOCC1)c(=O)n2C |  | > 100 µM |  |  |  | GI50 (U251 CNS): 14.1 µM; GI50 (MCF7 breast): 3.21 µM; TGI (MCF7 breast): > 100 µM; GI50 (MDA-MB-231 breast): 5.3 µM; TGI (MDA-MB-231 breast): > 100 µM; GI50 (HS 578T breast): 2.84 µM; TGI (HS 578T breast): 23.4 µM; GI50 (BT-549 breast): 2.83 µM; TGI (BT-549 breast): 32.2 µM; GI50 (DU-145 prostate): 6.92 µM; TGI (DU-145 prostate): > 100 µM
12 | COc1ccc(-c2nc3ccccn3c2/C=C/C(=O)c2cc(OC)c(OC)c(OC)c2)cc1OC |  | 65.5 µM |  |  |  | GI50 (U251 CNS): 2.91 µM; GI50 (MCF7 breast): 2.76 µM; TGI (MCF7 breast): > 100 µM; GI50 (MDA-MB-231 breast): 3.28 µM; TGI (MDA-MB-231 breast): 45 µM; GI50 (HS 578T breast): 1.85 µM; TGI (HS 578T breast): 9.82 µM; GI50 (BT-549 breast): 0.899 µM; TGI (BT-549 breast): 3.2 µM; GI50 (DU-145 prostate): 2.63 µM; TGI (DU-145 prostate): 8.14 µM
13 | c1ccc(Sc2ccc(Cc3nc4cc5ccccc5cc4[nH]3)cc2)cc1 |  | > 57.9 µM |  |  |  | GI50 (U251 CNS): 3.68 µM; GI50 (MCF7 breast): 6.73 µM; TGI (MCF7 breast): > 100 µM; GI50 (MDA-MB-231 breast): 3.31 µM; TGI (MDA-MB-231 breast): 29.9 µM; GI50 (HS 578T breast): 17.7 µM; TGI (HS 578T breast): 91.5 µM; GI50 (BT-549 breast): 16.4 µM; TGI (BT-549 breast): > 84.9 µM; GI50 (DU-145 prostate): 23 µM; TGI (DU-145 prostate): > 100 µM
14 | O=C(Nc1ccccc1-c1nc2ccccc2[nH]c1=O)c1ccccc1 | 69.2 µM | 49.6 µM |  | 40.7 µM | 52.6 µM | 
15 | COc1ccc2[nH]c3c4[nH]c5ccc(OC)cc5c4c4c(c3c2c1)C(=O)NC4=O |  | > 25 µM |  |  |  | GI50 (U251 CNS): > 8.42 µM; GI50 (MCF7 breast): > 25 µM; TGI (MCF7 breast): > 25 µM; GI50 (MDA-MB-231 breast): > 25 µM; TGI (MDA-MB-231 breast): > 25 µM; GI50 (HS 578T breast): 1.35 µM; TGI (HS 578T breast): > 25 µM; GI50 (BT-549 breast): > 9.4 µM; TGI (BT-549 breast): > 25 µM; GI50 (DU-145 prostate): > 15.1 µM; TGI (DU-145 prostate): > 25 µM
16 | O=C(c1cccc2ccccc12)N1CCC(C2CCN(C(=O)c3cccc4ccccc34)CC2)CC1 | > 100 µM | > 100 µM | > 100 µM | > 100 µM | > 100 µM | 
17 | COc1cc(Cc2nccc3cc(OC)c(OC)cc23)c(C(C)=O)cc1OC | 214 µM | 300 µM and > 750 µM | > 300 µM and 252 µM | 300 µM and 164 µM | 300 µM and > 750 µM | TGI (MCF7 breast): 300 µM; GI50 (HOP-18 NSCLC): 115 µM; GI50 (DMS 114 small cell lung): 3.02 µM; GI50 (DMS 273 small cell lung): > 750 µM
18 | Cc1cc(NS(=O)(=O)c2ccc(Nc3c4ccccc4nc4c(C(=O)N5CCN(CCO)CC5)cccc34)cc2)no1 | > 100 µM | > 100 µM | > 100 µM | > 100 µM | > 100 µM | 
